Source: patent publication US4442093A, “Method for administering 24,25-dihydroxycholecalciferol to persons suffering from hypercalcemia” (Kureha Kagaku Kogyo Kabushiki Kaisha, priority 1981, dated 1984)

How the values were obtained:
calcium level in serum = experiment: Serum calcium in rats made hypercalcemic with parathyroid hormone (Example 3); assay type: in vivo, male Wistar rats; conditions: 50 µg/kg i.p., PTH-treated
Description: To 4 subgroups of male Wistar rats of 150±40 g of body weight (a subgroup consisting of 5 animals), parathyroid hormone (PTH, Sigma Bovine parathyroid TCA powder, 134 USPU/mg) dissolved in a physiological saline solution containing 4% by weight of gelatine was subcutaneously injected at a dose rate of 150 USPU/100 g body weight, the volume injected being 0.4 ml/100 g body weight to prepare the rats artificially suffering from hypercalcemia.
The rats of the second group, after one hour of the administration of the parathroid hormone, were intraperitoneally administered only with ethanol, and treated as in the first group for taking the blood specimen.

[1] = tested on: ulcer found on the duodenum; experiment: Healing of acetic acid induced duodenal ulcer (Example 10); assay type: in vivo, male rats; conditions: 20 µg/kg/day oral, 10 days
Description: Fourty five male rats of body weight of 240 to 260 g were equally divided into three groups, each consisting of 15 animals, and they were subjected to an operation following the method of Okabe et al. (refer to Amer. J. Dig. Dia., 16, 277, 1971), in which under anesthesia by ether, a circular frame made of a metal was placed on the serosa 5 to 7 mm from the pylorus and 0.06 ml of gracial acetic acid was poured onto the round part within the frame and after 30 sec, the acetic liquid was removed with the frame.
The thus operated rats of the first group were administered orally with a suspension of […] of 24R,25-(OH)2 -D3 in Panacete®810 containing 0.2% by weight of ethanol once a day for continuous 10 days from the third day of the operation at a daily dose rate of 20 micrograms of 24R,25-(OH)2 -D3 /kg. To the thus operated rats of the second group (control), only Panacete®810 was orally administered at a daily dose rate of 2 ml/kg for continuous 10 days.
The thus operated rats of the third group were used in the comparative test. Namely, they were treated in the same manner as those of the first group except for administration of gefarnate (3,7-dimethyl-2,6-octadienyl-5,9,13-trimethyl-4,8,12-tetradecatrienoate) at a daily dose rate of 20 microgram/kg body weight in stead of 24R,25-(OH)2 -D3 in the first group.
After finishing the final administration, all the rats were sacrificed by ether and their duodenum was taken out for autopsy. The length and the width of the ulcer found on the duodenum were measured, and their product with a unit of mm^2 was taken and named as the ulcer coefficient. The rate of healing of the ulcer was calculated by the following formula: [formula] wherein C is the ulcer coefficient of control and U is the ulcer coefficient of the group to which the present compound was administered.

[2] = tested on: content of magnesium in serum and bone; experiment: Serum and bone magnesium in rats on Vitamin D-deficient diet (Example 16); assay type: in vivo, male Wistar rats; conditions: diet TD-81143
Description: Forty male Wistar rats in 9th week after birth were divided equally into four groups, and the rats of each group were treated as follows:
The rats of the first group were raised with a normal diet (TD-81144) with daily oral administration of 0.2 ml of MCT (refer to Example 15)/100 g body weight for 5 weeks.
The rats of the second group were raised with a Vitamin D-deficient diet (TD-81143, made by TEKLAD Co., U.S.A., which causes abnormal metabolism of magnesium) with daily oral administration of 0.2 ml of MCT/100 g body weight for 5 weeks.
The rats of the third group were raised with the Vitamin D-deficient diet as in those of the […] with daily oral administration of 1 microgram of 24R,25-(OH)2 -D3 dissolved in 0.2 ml of MCT/100 g body weight for 5 weeks.
The rats of the fourth group were raised with the Vitamin D-deficient diet as in those of the […] with daily oral administration of 10 micrograms of 24R,25-(OH)2 -D3 dissolved in 0.2 ml of MCT/100 g body weight for 5 weeks.
After the final administration was over, all the rats were sacrificed to collect their bones and blood respectively.
Serum specimen was prepared by the ordinary method from the blood specimen, and the bones were washed to remove marrow, lyopholized at -20° C. for 3 days and pulverized in a mortar. After de-ashing 50 mg of the thus pulverized bone with 1 ml of 2 N aqueous hydrochloric solution at room temperature, the insoluble matter was removed by filtration, and the filtrate was subjected to atomic absorption method to find out the content of magnesium in the bone specimen. Magnesium content of the serum specimen was determined by atomic absorption method.

magnesium level in serum = experiment: Serum magnesium in hypermagnesemic chronic renal failure patients (Example 17); assay type: in vivo, human; conditions: for Magnesium level in serum after administration: 10 days; for Magnesium level in serum before administration: baseline
Description: To the three patients of chronic renal failure showing the hypermagnesemic symptoms of nearly the same extent to each other, 24R,25-(OH)2 -D3 was orally administered in a form of soft capsule composition prepared in Example 6 at a daily dose of 2 to 5 micrograms for continuous 10 days. Magnesium level in their serum was determined before and after the administration following the ordinary method.

[3] = tested on: inorganic phosphate in serum; experiment: Serum inorganic phosphate in rats given puromycin aminonucleoside (Example 19); assay type: in vivo, male Wistar rats; conditions: hyperphosphatemia due to puromycin-amino-nucleoside
Description: Puromycin aminonucleoside (hereinafter abbreviated as AN) was dissolved in physiological saline solution to be the concentration of 15 mg of AN/ml.
The thus prepared solution was subcutaneously administered to […] in 9th to 10th week after birth divided equally into 3 groups once a day for continuous 5 days at a daily dose rate of 15 mg/kg body weight, and the administration of AN was suspended for the next 2 weeks. This cycle of 5 days of administration followed by 2 weeks of suspension of administration was repeated 5 times, and from the commencement of the 4th cycle, drinking water was substituted by one of the compositions for oral administration prepared in Example 18, namely, Composition A or Composition B to be taken ad lib by each one of the three groups of the rats for 38 days therefrom. […] As control, a group consisting of 8 male Wistar rats was used without giving AN and with the oral administration of aqueous 0.1% by weight isopropyl alcohol solution taken ad lib during the same 38 days as above. As comparative example, another group consisting of 8 male Wistar rats was used with the same administration of AN as in the test groups and with the oral administration of aqueous 0.1% by weight isopropyl alcohol taken ad lib as in the control group.

[4] = tested on: LICR-LON-HMy 2 cells derived from human myeloma; experiment: Inhibition of proliferation of LICR-LON-HMy 2 cells (Example 25); assay type: cell-based; conditions: 3 days
Description: In a similar manner to Example 24, in vitro proliferated strain of LICR-LON-HMy 2 cells derived from human myeloma were cultured in each one of the same culture mediums as those used in Example 24. After culturing for 3 days, the cultured medium was stained with tripan blue and observed under a microscope to count the number of living cells, the results being shown in Table 19.
In Table 19, the inhibition rate is based on the number of cells in the culture medium added specifically with dimethylsulfoxide as in Example 24.

Compound: C=C1CC[C@H](O)C/C1=C/C=C1\CCC[C@]2(C)[C@@H]([C@H](C)CC[C@@H](O)C(C)(C)O)CC[C@@H]12 [24R,25-(OH)2 -D3]
- Calcium level in serum (calcium level in serum; after 2 hours): 12.5 ± 0.5 mg/dL
- Calcium level in serum (calcium level in serum; after 5 hours): 10.5 ± 0.5 mg/dL
- ulcer coefficient [1]: 1.5 mm^2
- rate of ulcer healing ([1]; vs control): 80%
- Content of magnesium in bone ([2]; 1 µg/100 g/day oral 5 weeks): 0.395 ± 0.021%
- Content of magnesium in serum ([2]; 1 µg/100 g/day oral 5 weeks): 4.0 ± 0.3 mg/dL
- Content of magnesium in bone ([2]; 10 µg/100 g/day oral 5 weeks): 0.396 ± 0.016%
- Content of magnesium in serum ([2]; 10 µg/100 g/day oral 5 weeks): 3.6 ± 0.3 mg/dL
- Magnesium level in serum after administration (magnesium level in serum; patient A, 5 µg/day): 2.0 mg/dL
- Magnesium level in serum before administration (magnesium level in serum; patient A): 4.2 mg/dL
- Magnesium level in serum after administration (magnesium level in serum; patient B, 2 µg/day): 2.1 mg/dL
- Magnesium level in serum before administration (magnesium level in serum; patient B): 4.0 mg/dL
- Magnesium level in serum after administration (magnesium level in serum; patient C, 5 µg/day): 1.9 mg/dL
- Magnesium level in serum before administration (magnesium level in serum; patient C): 4.3 mg/dL
- inorganic phosphate level in serum [3]: significant reduction of the inorganic phosphate level
- Number of myeloma cells after culture ([4]; 1 microgram/ml): 8.0 ×10^5 cells/ml
- Number of myeloma cells after culture ([4]; 10 micrograms/ml): 0.4 ×10^5 cells/ml
- inhibition at 1 µg/mL ([4]; Homo sapiens, 72 h, 1 microgram/ml, vs dimethylsulfoxide, read-out: Inhibition Rate of the myeloma cells): 12%
- inhibition at 10 µg/mL ([4]; Homo sapiens, 72 h, 10 micrograms/ml, vs dimethylsulfoxide, read-out: Inhibition Rate of the myeloma cells): 96%
